Some test systems named below: 786-0 renal; K-562 leukemia; UACC-62 melanoma; SK-MEL-5 melanoma; SK-MEL-28 melanoma; NCI-H226 lung; A498 renal; M14 melanoma; A549 NSCLC; NCI-H23 lung.
Common to all, as to experiment: NCI-60 cell line screen, 48 h

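In this assay, cells in 96-well plates receive the compound at five concentrations for 48 hours. Endpoints are linearly interpolated between the surrounding concentrations. GI50 is the concentration that inhibits growth by half. Definition used: TGI = concentration required for complete inhibition of growth.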 Some results are limits rather than exact numbers.

Turning to `CC1(C)CC(O)CCCCCCOc2c(CN)cccc2NC(=O)c2nc(cnc2N)-c2ccc(cc2)S1(=O)=O` (stereo not drawn), the GI50 with 786-0 renal was 0.0278 µM; in the assay with K-562 leukemia, 0.0538 µM; with UACC-62 melanoma, 1.67 µM; with SK-MEL-5 melanoma, 1.5 µM; in the assay with SK-MEL-28 melanoma, 1.13 µM; in the assay on NCI-H226 lung, 1.28 µM. Further, the GI50 with A498 renal is 0.0151 µM; in the assay on M14 melanoma it was 0.0927 µM. Further, the TGI worked out at 1.97 µM with 786-0 renal; 2.69 µM in the assay with K-562 leukemia; 3.3 µM with UACC-62 melanoma; 2.89 µM in the assay with SK-MEL-5 melanoma; 2.48 µM in the assay on SK-MEL-28 melanoma; 6.93 µM in the assay with NCI-H226 lung. Further, the TGI turned out to be 0.84 µM in the assay with A498 renal and 2.58 µM with M14 melanoma.
Consider `O=c1cc(-c2ccc[nH]2)[nH]c2cc3c(cc12)OCO3`, for which the TGI in the assay on A549 NSCLC, in the assay with 786-0 renal, in the assay with K-562 leukemia, in the assay on UACC-62 melanoma, with SK-MEL-5 melanoma and in the assay on SK-MEL-28 melanoma was above 100 µM in each case. Further, the TGI in the assay on NCI-H226 lung was above 100 µM; in the assay with A498 renal it was 74.3 µM; with M14 melanoma, above 100 µM. The GI50 with SK-MEL-5 melanoma was 7.74 µM; in the assay on NCI-H226 lung, 35.3 µM.
With `CCN1CCN(c2cc(C)nc(NCc3cc(Nc4ccnc5cc(Cl)ccc45)ccc3F)n2)CC1`, the GI50 is 5.1 µM with A549 NSCLC; 2.07 µM in the assay on 786-0 renal; 1.04 µM with K-562 leukemia; 1.55 µM in the assay with SK-MEL-5 melanoma; 1.84 µM in the assay with SK-MEL-28 melanoma; 5.79 µM in the assay with NCI-H23 lung. The results for the GI50 with NCI-H226 lung, in the assay with A498 renal and in the assay with M14 melanoma were 15.4 µM, 1.89 µM and 1.72 µM, respectively. Also, the TGI was above 100 µM in the assay with A549 NSCLC; 5.88 µM with 786-0 renal; above 100 µM with K-562 leukemia; 2.99 µM in the assay on SK-MEL-5 melanoma; 3.71 µM in the assay with SK-MEL-28 melanoma; above 100 µM with NCI-H23 lung. The values for the TGI in the assay with NCI-H226 lung, in the assay on A498 renal and in the assay on M14 melanoma were 48.9 µM, 8.05 µM and 3.4 µM, respectively.
Consider `O=C(Nc1ccc([N+](=O)[O-])cc1)c1cc2ccccc2cc1O`, for which the GI50 with A549 NSCLC is 0.454 µM; in the assay with 786-0 renal, 0.399 µM; with K-562 leukemia, 0.347 µM; with UACC-62 melanoma, 0.336 µM; in the assay with SK-MEL-5 melanoma, 0.221 µM; in the assay with SK-MEL-28 melanoma, 0.448 µM. The GI50 was 0.294 µM in the assay on NCI-H23 lung, 0.503 µM in the assay on NCI-H226 lung and 0.197 µM with A498 renal. The TGI in the assay with A549 NSCLC is above 21.5 µM; with 786-0 renal it was 1.91 µM; in the assay with K-562 leukemia it was above 100 µM; in the assay on UACC-62 melanoma it was 1.45 µM; in the assay on SK-MEL-5 melanoma it was 0.534 µM; in the assay on SK-MEL-28 melanoma, above 36.5 µM. Besides, the TGI with NCI-H23 lung was found to be 1.42 µM; in the assay on NCI-H226 lung, 5.37 µM; with A498 renal, 0.628 µM.
Take `OCCCCC#Cc1ccccc1C#Cc1cccs1`: the GI50 was 17.4 µM in the assay with A549 NSCLC; 14.3 µM in the assay on 786-0 renal; 20.3 µM in the assay on K-562 leukemia; 12.9 µM in the assay on UACC-62 melanoma; 13.3 µM with SK-MEL-5 melanoma; 15.8 µM in the assay with SK-MEL-28 melanoma. Moreover, the GI50 with NCI-H23 lung was 14.2 µM; in the assay with NCI-H226 lung, 18.9 µM; with A498 renal it was 9.67 µM. The TGI in the assay with A549 NSCLC is 31.1 µM; in the assay on 786-0 renal it was 27.9 µM; in the assay with K-562 leukemia it was 70.6 µM; in the assay on UACC-62 melanoma, 25.9 µM; in the assay on SK-MEL-5 melanoma, 26 µM; in the assay on SK-MEL-28 melanoma, 31.1 µM. The TGI in the assay with NCI-H23 lung came to 30.9 µM; with NCI-H226 lung it was 43.6 µM; in the assay with A498 renal, 23.3 µM.
Consider `CN(C)CCN1C(=O)c2cccc3c(-c4ccc5ncn(C6CCCCC6)c5c4)ccc(c23)C1=O`, for which the GI50 was 1.12 µM in the assay on A549 NSCLC; 1.59 µM in the assay on 786-0 renal; 1.27 µM in the assay with K-562 leukemia; 1.44 µM in the assay with SK-MEL-5 melanoma; 2.18 µM in the assay with SK-MEL-28 melanoma; 1.35 µM in the assay with NCI-H23 lung. The GI50 with NCI-H226 lung is 2.32 µM; in the assay with A498 renal it was 2.15 µM; in the assay on M14 melanoma, 1.7 µM. Moreover, the TGI in the assay with A549 NSCLC was 2.56 µM; in the assay on 786-0 renal it was 12.2 µM; in the assay on K-562 leukemia, above 100 µM; with SK-MEL-5 melanoma, 2.85 µM; in the assay with SK-MEL-28 melanoma, 5.66 µM; with NCI-H23 lung it was 3.82 µM. Moreover, the TGI in the assay with NCI-H226 lung was found to be 7.78 µM; with A498 renal, 5.1 µM; with M14 melanoma, 3.61 µM.
For `CCCCCCCCCCCCOC(=S)NC`, the TGI was found to be 34.2 µM in the assay on 786-0 renal; 45.9 µM in the assay with K-562 leukemia; 31 µM with UACC-62 melanoma; 44 µM with SK-MEL-28 melanoma; 40.9 µM in the assay with NCI-H23 lung; 15.2 µM in the assay with NCI-H226 lung. For the same compound, the TGI in the assay on A498 renal amounted to 41.5 µM; in the assay with M14 melanoma, 37.1 µM.
On to `COc1cc(CCC(=O)NS(=O)(=O)c2ccccc2)cc(OC)c1OC`, for which the TGI in the assay with A549 NSCLC, with 786-0 renal, in the assay on K-562 leukemia, with UACC-62 melanoma, with SK-MEL-28 melanoma and with NCI-H23 lung was above 100 µM each time. For the same compound, the TGI in the assay with NCI-H226 lung, in the assay on A498 renal and in the assay on M14 melanoma was above 100 µM each time.
As to `COC(=O)c1cccc2c1Oc1ccccc1S2`, the TGI is above 100 µM in the assay with A549 NSCLC; above 100 µM with 786-0 renal; above 100 µM in the assay on K-562 leukemia; above 100 µM in the assay on UACC-62 melanoma; 54.9 µM in the assay with SK-MEL-5 melanoma; above 100 µM with SK-MEL-28 melanoma. The TGI with NCI-H226 lung, in the assay with A498 renal and in the assay on M14 melanoma was above 100 µM throughout.
Turning to `CC(C)(C)n1cc(-c2ccnc(NCCCNS(=O)(=O)c3ccc(Cl)cc3)c2)c(-c2cccc(O)c2)n1`, the GI50 with A549 NSCLC was 1.97 µM; in the assay with 786-0 renal, 2.03 µM; in the assay with UACC-62 melanoma, 1.65 µM; with SK-MEL-5 melanoma, 1.44 µM; in the assay with SK-MEL-28 melanoma, 1.57 µM; in the assay on NCI-H23 lung it was 1.68 µM. The results for the GI50 with NCI-H226 lung, with A498 renal and in the assay with M14 melanoma were 2.11 µM, 1.51 µM and 1.72 µM, respectively. Further, the TGI in the assay with A549 NSCLC stood at 4.97 µM; in the assay on 786-0 renal, 4.54 µM; in the assay on UACC-62 melanoma, 3.29 µM; in the assay on SK-MEL-5 melanoma, 2.76 µM; with SK-MEL-28 melanoma it was 3.06 µM; with NCI-H23 lung, 3.48 µM. In addition, the TGI in the assay on NCI-H226 lung is 5.04 µM; in the assay with A498 renal, 3.72 µM; in the assay on M14 melanoma, 3.45 µM.
